Test results from article PMC10428205, “Cytotoxicity of Ruthenium(II) Arene Complexes Containing Functionalized Ferrocenyl β-Diketonate Ligands” (Organometallics, 2023).

What was measured:
MIA PaCa-2 [1] = assay: Chemosensitivity under hypoxic conditions (0.1% O2, 96 h MTT); assay type: cell-based, human
Description: LogP = Log ( [C]final ) Eqn1
96 h Chemosensitivity Studies
In vitro chemosensitivity tests were performed at both the University of Huddersfield and the Institute of Cancer Therapeutics, Bradford, in a sterile Class II Biological Safety Cabinet fitted with a HEPA filtered laminar airflow.
Cellular assays were conducted against human pancreatic carcinoma (MIA PaCa-2), human colorectal carcinoma p53-wildtype (HCT116 p53+/+), and human non-cancerous epithelial retinal cells (ARPE-19). The ARPE-19 cells were obtained from the American Type Culture Collection and provided by the University of Huddersfield. All cell lines were routinely maintained as monolayer cultures in appropriate complete medium and maintained in either T-25 or T-75 flasks at 37 °C and 5% CO2. MIA PaCa-2 and ARPE-19 cells were cultured in high glucose DMEM-F12 medium containing 10% foetal calf serum, and HCT116 p53+/+ was cultured in RPMI 1640 supplemented with 10% foetal calf serum. All medium was supplemented with sodium pyruvate (1 mM) and L-glutamine (2 mM), and prior to chemosensitivity studies, cell monolayers were passaged using Trypsin-EDTA and diluted to a concentration of 1 x 10^4 cells/mL. All assays were conducted using 96-well plates, in which […] of the 1 x 10^4 cells/mL cell suspension was added to each well and incubated for 24 h at 37 °C and 5% CO2. […] After mixing well, the absorbance of each well was measured at 540 nm using a ThermoFisher Multiskan FC spectrophotometer microplate reader. Using the blank and 100% cell controls, the % cell viability was determined [(abs. of compound containing wells – abs. media wells)/(abs. 100% cell suspension well control)] and from this the % cell death (100%- % cell viability) was calculated. On a logarithmic scale, the percentage cell death was plotted against the concentration of compound, and from this the half maximal inhibitory concentration (IC50) value was determined. […]

MIA PaCa-2 [2] = assay: Comet assay of cellular DNA damage; assay type: cell-based, human; conditions: MIA PaCa-2, 48 h incubation, varying concentration
Description: Complexes 2, 4, and 7 were chosen due to their range in cytotoxicity, where complex 2 is moderately active and complexes 4 and 7 have the highest activities. Their ability to induce single-strand breakage (SSB) of DNA with varying concentrations of compound was studied after incubation with MIA PaCa-2 cells for 48 h. After harvesting the cells, quantification of the levels of SSB of DNA were assessed by using the alkaline comet assay.
Samples were then taken up in Optima high purity nitric acid, diluted to 10 mL with 1mL rhodium internal standard and 9 mL 18.2 Ultrapure water. The elemental contents of the samples were determined using ICP-MS-QQQ Thermo TQ spectrometer. Measurement of iron mass 56 and ruthenium isotope mass 100 was conducted by comparing solutions of known concentration and intensities. A series of standard calibration curves allows the concentration of each element to be determined. […]
The media -free wells were then trypsinized (1 mL) for 3 -5 minutes and then neutralized with high glucose DMEM (1 mL), these were all added to the centrifuge t ube and centrifuged at 1500 rpm for 3 minutes. […] Staining solution (150 mL) was added to each slide and the Comets analysed using Comet assay III software. A minimum of 50 different comets were scored and the computer outputs an average on head and tail intensities and tail moments. […]

[NH2][Pt]([NH2])([Cl])[Cl] [CDDP, cisplatin, reference compound] was tested, and the IC50 (MIA PaCa-2 [1]; MIA PaCa-2, 0.1% O2, 96 h MTT) was greater than 50 µM, the “fold loss of activity from normoxic to hypoxic conditions” value (MIA PaCa-2 [1]; MIA PaCa-2, 21% vs 0.1% O2) was greater than 14 fold and the “single-strand breakage (SSB) of DNA” value (MIA PaCa-2 [2]) was “dose-dependent SSB similar to that of complex 4”.
